Source: ChEMBL document CHEMBL4477234, “Potent Suppressive Effects of 1-Piperidinylimidazole Based Novel P2X7 Receptor Antagonists on Cancer Cell Migration and Invasion” (J Med Chem, 2016)

Key:
P2X purinoceptor 7 [1] = molecular target: T1, P2X purinoceptor 7 (Homo sapiens, UniProt Q99572); assay: Antagonist activity at human P2X7 receptor expressed in HEK293 cells assessed as inhibition of BzATP-induced EtBr uptake measured after 2 hrs by fluorescence analysis; type: cell-based
T1 sequence (Q99572 whole entry): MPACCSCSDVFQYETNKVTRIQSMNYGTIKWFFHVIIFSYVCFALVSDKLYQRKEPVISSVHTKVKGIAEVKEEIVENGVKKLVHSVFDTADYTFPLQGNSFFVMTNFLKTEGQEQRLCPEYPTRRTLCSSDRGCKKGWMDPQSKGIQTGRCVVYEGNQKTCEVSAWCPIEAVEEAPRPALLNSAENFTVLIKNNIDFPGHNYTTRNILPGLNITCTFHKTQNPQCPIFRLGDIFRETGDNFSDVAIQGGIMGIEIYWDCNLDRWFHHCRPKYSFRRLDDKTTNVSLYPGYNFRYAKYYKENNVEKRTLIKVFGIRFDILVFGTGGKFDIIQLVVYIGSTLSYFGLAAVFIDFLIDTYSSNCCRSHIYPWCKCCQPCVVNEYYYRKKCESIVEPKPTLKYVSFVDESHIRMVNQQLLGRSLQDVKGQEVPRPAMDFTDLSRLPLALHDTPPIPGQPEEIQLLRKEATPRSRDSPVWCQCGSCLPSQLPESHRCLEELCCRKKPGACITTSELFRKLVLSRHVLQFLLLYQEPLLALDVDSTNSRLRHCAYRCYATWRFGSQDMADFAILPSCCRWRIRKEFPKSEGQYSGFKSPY

P2X purinoceptor 7 [2] = molecular target: T1, P2X purinoceptor 7; assay: Antagonist activity at human P2X7 receptor in LPS/IFN-gamma-differentiated human THP-1 cells assessed as suppression of BzATP-stimulated IL-1beta release per-incubated for 30 mins before BzATP addition and measured after 30 mins by ELISA; type: cell-based

| IC50 (P2X purinoceptor 7 [1]) [nM] | IC50 (P2X purinoceptor 7 [2]) [nM] | Compound |
| --- | --- | --- |
| 238 | – | O=C(c1ccc(Cl)c(C(F)(F)F)c1)N1CCC(n2cncc2-c2ccc(OS(=O)(=O)c3cccs3)cc2)CC1 |
| 1570 | – | CS(=O)(=O)Oc1ccc(-c2cncn2C2CCN(C(=O)c3ccc(Cl)c(C(F)(F)F)c3)CC2)cc1 |
| 109 | 4.7 | CC(C)(O)c1ccc(C(=O)N2CCC(n3cncc3-c3ccc(OS(=O)(=O)c4cccc5cnccc45)cc3)CC2)cc1 |
| > 10000 | – | O=C(Oc1ccc(-c2cncn2C2CCN(C(=O)c3ccc(Cl)c(C(F)(F)F)c3)CC2)cc1)c1cccs1 |
| 152 | – | O=C(NC1CC1)c1cccc(S(=O)(=O)Oc2ccc(-c3cncn3C3CCN(C(=O)c4ccc([N+](=O)[O-])cc4)CC3)cc2)c1 |
| 88 | 58 | O=C(NC1CC1)c1cccc(S(=O)(=O)Oc2ccc(-c3cncn3C3CCN(C(=O)c4ccc(Cl)c(C(F)(F)F)c4)CC3)cc2)c1 |
| 41 | 121 | CN(C)c1ccc(C(=O)N2CCC(c3nc4cc(OS(=O)(=O)c5cccc6cnccc56)ccc4[nH]3)CC2)cc1 |
| 45 | 13 | N#Cc1cccc(S(=O)(=O)Oc2ccc(-c3cncn3C3CCN(C(=O)c4ccc([N+](=O)[O-])cc4)CC3)cc2)c1 |
| 32 | 10 | CN(C)c1ccc(C(=O)N2CCC(n3cncc3-c3ccc(OS(=O)(=O)c4cccc(C#N)c4)cc3)CC2)cc1 |
| 73 | 4.28 | N#Cc1cccc(S(=O)(=O)Oc2ccc(-c3cncn3C3CCN(C(=O)c4ccc(Cl)c(C(F)(F)F)c4)CC3)cc2)c1 |
| 244 | – | COc1ccc(C(=O)N2CCC(n3cncc3-c3ccc(OS(=O)(=O)c4cccc(C(=O)NC5CC5)c4)cc3)CC2)cc1 |
| 25 | 0.32 | CS(=O)(=O)c1ccc(C(=O)N2CCC(n3cncc3-c3ccc(OS(=O)(=O)c4cccc5cnccc45)cc3)CC2)cc1 |
| 1440 | – | CCN(CC)c1ccc(C(=O)N2CCC(n3cncc3-c3ccc(OS(=O)(=O)c4cccc5cnccc45)cc3)CC2)cc1 |
| 565 | – | Nc1cccc(S(=O)(=O)Oc2ccc(-c3cncn3C3CCN(C(=O)c4ccc(Cl)c(C(F)(F)F)c4)CC3)cc2)c1 |
| 40 | 18 | O=C(c1ccc(Cl)c(C(F)(F)F)c1)N1CCN(c2cc(=O)[nH]c(=O)n2Cc2ccc(OS(=O)(=O)c3cccc4cnccc34)cc2)CC1 |
| 155 | – | CN(C)c1cccc(C(=O)N2CCC(n3cncc3-c3ccc(OS(=O)(=O)c4cccc5cnccc45)cc3)CC2)c1 |
| 249 | – | O=C(c1ccc(Cl)c(C(F)(F)F)c1)N1CCC(n2cncc2-c2ccc(OS(=O)(=O)c3cccc([N+](=O)[O-])c3)cc2)CC1 |
| 702 | – | O=C(c1ccc(Cl)c(C(F)(F)F)c1)N1CCC(n2cncc2-c2ccc(OS(=O)(=O)c3ccccc3)cc2)CC1 |
| 202 | – | CCN(CC)C(=O)c1cccc(S(=O)(=O)Oc2ccc(-c3cncn3C3CCN(C(=O)c4ccc(Cl)c(C(F)(F)F)c4)CC3)cc2)c1 |
| 896 | – | O=C(c1ccc(Cl)c(C(F)(F)F)c1)N1CCC(n2cncc2-c2ccc(OS(=O)(=O)c3cccc(Br)c3)cc2)CC1 |
| 44 | 50 | CS(=O)(=O)c1ccc(C(=O)N2CCN(c3cc(=O)[nH]c(=O)n3Cc3ccc(OS(=O)(=O)c4cccc5cnccc45)cc3)CC2)cc1 |
| 202 | – | CNC(=O)c1cccc(S(=O)(=O)Oc2ccc(-c3cncn3C3CCN(C(=O)c4ccc(S(C)(=O)=O)cc4)CC3)cc2)c1 |

| IC50 (P2X purinoceptor 7 [1]) [nM] | IC50 (P2X purinoceptor 7 [2]) [nM] | Compound |
| --- | --- | --- |
| 31 | 210 | O=C(c1ccc(Cl)c(C(F)(F)F)c1)N1CCC(c2nc3cc(OS(=O)(=O)c4cccc5cnccc45)ccc3[nH]2)CC1 |
| 143 | – | CS(=O)(=O)c1ccc(C(=O)N2CCC(n3cncc3-c3ccc(OS(=O)(=O)c4cccc(C#N)c4)cc3)CC2)cc1 |
| 1.49 | 8.29 | O=C(c1ccc([N+](=O)[O-])cc1)N1CCC(n2cncc2-c2ccc(OS(=O)(=O)c3cccc4cnccc34)cc2)CC1 |
| > 10000 | – | CC(=O)Oc1ccc(-c2cncn2C2CCN(C(=O)c3ccc(Cl)c(C(F)(F)F)c3)CC2)cc1 |
| 25 | 22 | CNC(=O)c1cccc(S(=O)(=O)Oc2ccc(-c3cncn3C3CCN(C(=O)c4ccc(N(C)C)cc4)CC3)cc2)c1 |
| 27 | 32 | O=C(c1ccc([N+](=O)[O-])cc1)N1CCN(c2cc(=O)[nH]c(=O)n2Cc2ccc(OS(=O)(=O)c3cccc4cnccc34)cc2)CC1 |
| 312 | – | COc1ccc(C(=O)N2CCC(n3cncc3-c3ccc(OS(=O)(=O)c4cccc(C#N)c4)cc3)CC2)cc1 |
| 112 | 1.76 | CNC(=O)c1cccc(S(=O)(=O)Oc2ccc(-c3cncn3C3CCN(C(=O)c4ccc(Cl)c(C(F)(F)F)c4)CC3)cc2)c1 |
| 3520 | – | O=C(c1ccc(Cl)c(C(F)(F)F)c1)N1CCC(n2cncc2-c2ccc(OS(=O)(=O)c3cccc4ccccc34)cc2)CC1 |
| 269 | – | N#Cc1ccc(C(=O)N2CCC(n3cncc3-c3ccc(OS(=O)(=O)c4cccc5cnccc45)cc3)CC2)cc1 |
| 159 | – | CNC(=O)c1cccc(S(=O)(=O)Oc2ccc(-c3cncn3C3CCN(C(=O)c4ccc(OC)cc4)CC3)cc2)c1 |
| 430 | 552 | O=C(c1ccc(Cl)c(C(F)(F)F)c1)N1CCC(n2ccc3cc(OS(=O)(=O)c4cccc5cnccc45)ccc32)CC1 |
| 45 | 22 | O=C(c1ccc(Cl)c(C(F)(F)F)c1)N1CCC(n2cncc2-c2ccc(OS(=O)(=O)c3cccc4cnccc34)cc2)CC1 |
| 187 | – | O=C(c1ccc(Oc2ccccc2)cc1)N1CCC(n2cncc2-c2ccc(OS(=O)(=O)c3cccc4cnccc34)cc2)CC1 |
| 55 | 37 | CC(C)c1ccc(C(=O)N2CCC(n3cncc3-c3ccc(OS(=O)(=O)c4cccc5cnccc45)cc3)CC2)cc1 |
| > 10000 | – | O=C(Oc1ccc(-c2cncn2C2CCN(C(=O)c3ccc(Cl)c(C(F)(F)F)c3)CC2)cc1)c1cccc2cnccc12 |
| 62 | 26 | CNC(=O)c1cccc(S(=O)(=O)Oc2ccc(-c3cncn3C3CCN(C(=O)c4ccc([N+](=O)[O-])cc4)CC3)cc2)c1 |
| 77 | 64 | COc1ccc(C(=O)N2CCC(n3cncc3-c3ccc(OS(=O)(=O)c4cccc5cnccc45)cc3)CC2)cc1 |
| > 10000 | – | O=C(Oc1ccc(-c2cncn2C2CCN(C(=O)c3ccc(Cl)c(C(F)(F)F)c3)CC2)cc1)c1ccccc1 |
| 13 | 17 | O=C(c1ccc([N+](=O)[O-])cc1)N1CCC(c2nc3cc(OS(=O)(=O)c4cccc5cnccc45)ccc3[nH]2)CC1 |
| 259 | – | COc1ccc(C(=O)N2CCC(n3cncc3-c3ccc(OS(=O)(=O)c4cccc5cnccc45)cc3)CC2)cc1OC |
| 400 | – | CS(=O)(=O)c1ccc(C(=O)N2CCC(n3cncc3-c3ccc(OS(=O)(=O)c4cccc(C(=O)NC5CC5)c4)cc3)CC2)cc1 |
